For eight compounds, Activity results are on record in ChEMBL document CHEMBL1141733, “Cardiovascular effects of aspidofractinine-type alkaloids from Kopsia” (1998).

The source made the active and inactive calls. No cut-off for these calls is given here.

The subject of test [1] is Rattus norvegicus. Put plainly: Increase in basal mean arterial blood pressure anesthetized SHR rat at 1 mg/kg, iv. It counts as functional, organism-based. Further details: dose 1 mg/kg.
Test [2] has as its system Rattus norvegicus. Put plainly: Increase in basal mean arterial blood pressure anesthetized SHR rat at 5 mg/kg, iv. It counts as functional, organism-based. Further details: dose 5 mg/kg.
The test system of test [3] is Rattus norvegicus. The test can be described thus: Antihypertensive activity in iv dosed anesthetized SHR rat assessed as decrease in basal mean arterial blood pressure. The test is classed as functional, organism-based. The settings on record: Artery.
The subject of test [4] is Rattus norvegicus. The test can be described thus: Antihypertensive activity in anesthetized SHR rat assessed as decrease in heart rate at 2 mg/kg, iv. It counts as functional, organism-based. Further details: dose 2 mg/kg.
Test [5] deals with Rattus norvegicus. The test can be described thus: Increase in basal mean arterial blood pressure anesthetized SHR rat at 0.5 mg/kg, iv. It counts as functional, organism-based. Further details: dose 0.5 mg/kg.
For test [6], the system named is Rattus norvegicus. Put plainly: Antihypertensive activity in anesthetized SHR rat assessed as decrease in heart rate at 1 mg/kg, iv. The test is classed as functional, organism-based. Further details: dose 1 mg/kg.
In test [7] the test system is Rattus norvegicus. The test can be described thus: Antihypertensive activity in anesthetized SHR rat assessed as decrease in heart rate at 5 mg/kg, iv. The test is classed as functional, organism-based. Set-up: dose 5 mg/kg.
The subject of test [8] is Rattus norvegicus. The test can be described thus: Antihypertensive activity in iv dosed anesthetized SHR rat assessed as concomitant fall in heart rate. The test is classed as functional, organism-based.
For test [9], the system named is Rattus norvegicus. The test can be described thus: Increase in basal mean arterial blood pressure anesthetized SHR rat at 0.2 mg/kg, iv. The test is classed as functional, organism-based. Further details: dose 0.2 mg/kg.
Test [10] deals with Rattus norvegicus. Put plainly: Antihypertensive activity in anesthetized SHR rat assessed as decrease in heart rate at 0.2 mg/kg, iv. The test is classed as functional, organism-based. Further details: dose 0.2 mg/kg.
In test [11] the test system is Rattus norvegicus. Put plainly: Increase in basal mean arterial blood pressure anesthetized SHR rat at 10 mg/kg, iv. The test is classed as functional, organism-based. Set-up: dose 10 mg/kg.
Test [12] has as its system Rattus norvegicus. Put plainly: (§1) Antihypertensive activity in anesthetized SHR rat assessed as decrease in heart rate at 10 mg/kg, iv. It counts as functional, organism-based. Further details: dose 10 mg/kg.
Test [13] relates to Rattus norvegicus. The test can be described thus: Antihypertensive activity in anesthetized SHR rat assessed as decrease in heart rate at 0.5 mg/kg, iv. It counts as functional, organism-based. Set-up: dose 0.5 mg/kg.
The subject of test [14] is Rattus norvegicus. The test can be described thus: Increase in basal mean arterial blood pressure anesthetized SHR rat at 2 mg/kg, iv. The test is classed as functional, organism-based. Further details: dose 2 mg/kg.
The subject of test [15] is Rattus norvegicus. The test can be described thus: Antihypertensive activity in anesthetized SHR rat assessed as decrease in heart rate at 10 mg/kg, iv pretreated with hexamethonium for 10 mins. Further details: dose 10 mg/kg. It counts as functional, organism-based.
The subject of test [16] is Rattus norvegicus. The test can be described thus: Antihypertensive activity in anesthetized SHR rat assessed as decrease in basal mean arterial blood pressure at 10 mg/kg, iv pretreated with hexamethonium for 10 mins. The test is classed as functional, organism-based. Further details: dose 10 mg/kg. The settings on record: Artery.
The subject of test [17] is Rattus norvegicus. The test can be described thus: Antihypertensive activity in anesthetized SHR rat assessed as basal mean arterial blood pressure at 2 mg/kg, iv after 10 mins. The test is classed as functional, Artery.
In test [18] the test system is Rattus norvegicus. Put plainly: Antihypertensive activity in anesthetized SHR rat assessed as heart rate at 2 mg/kg, iv after 10 mins. It counts as functional.
The test system of test [19] is Rattus norvegicus. The test can be described thus: Antihypertensive activity in anesthetized SHR rat assessed as decrease in heart rate at 2 mg/kg, iv after 24 to 26 seconds. It counts as functional.
The subject of test [20] is Rattus norvegicus. The test can be described thus: Antihypertensive activity in anesthetized SHR rat assessed as decrease in basal mean arterial blood pressure at 2 mg/kg, iv after 24 to 26 seconds. It counts as functional, Artery.
Test [21] concerns Rattus norvegicus. The test can be described thus: Antihypertensive activity in anesthetized SHR rat assessed as decrease in heart rate at 10 mg/kg, iv pretreated with phentolamine for 10 mins. It counts as functional.
In test [22] the test system is Rattus norvegicus. The description is as §1. It counts as functional.
The subject of test [23] is Rattus norvegicus. The test can be described thus: Antihypertensive activity in anesthetized SHR rat assessed as decrease in basal mean arterial blood pressure at 10 mg/kg, iv. It counts as functional, Artery.
In test [24] the test system is Rattus norvegicus. Put plainly: Antihypertensive activity in anesthetized SHR rat assessed as decrease in basal mean arterial blood pressure at 10 mg/kg, iv pretreated with phentolamine for 10 mins. It counts as functional, Artery.
Test [25] deals with Rattus norvegicus. The test can be described thus: Antihypertensive activity in anesthetized SHR rat assessed as decrease in heart rate at 20 mg/kg, iv after 10 mins. It counts as functional.
For test [26], the system named is Rattus norvegicus. The test can be described thus: Antihypertensive activity in anesthetized SHR rat assessed as decrease in heart rate at 20 mg/kg, iv after 1 to 1.5 mins. The test is classed as functional.
For test [27], the system named is Rattus norvegicus. Put plainly: Antihypertensive activity in anesthetized SHR rat assessed as decrease in basal mean arterial blood pressure at 20 mg/kg, iv after 1 to 1.5 mins. The test is classed as functional, Artery.
For test [28], the system named is Rattus norvegicus. Put plainly: Antihypertensive activity in anesthetized SHR rat assessed as decrease in basal mean arterial blood pressure at 20 mg/kg, iv after 10 mins. It counts as functional, Artery.
Test [29] concerns Rattus norvegicus. The test can be described thus: Antihypertensive activity in anesthetized SHR rat assessed as hypotensive response lasting time at 10 mg/kg, iv. The test is classed as functional.
For test [30], the system named is Rattus norvegicus. Put plainly: Antihypertensive activity in anesthetized SHR rat assessed as decrease in basal mean arterial blood pressure at 10 mg/kg, iv pretreated with atropine for 10 mins. The test is classed as functional, Artery.
Test [31] has as its system Rattus norvegicus. Put plainly: Antihypertensive activity in anesthetized SHR rat assessed as decrease in heart rate at 10 mg/kg, iv pretreated with atropine for 10 mins. The test is classed as functional.
Test [32] has as its system Rattus norvegicus. The test can be described thus: Antihypertensive activity in iv dosed anesthetized WKY rat assessed as hypotensive activity. It counts as functional, organism-based.
Test [33] concerns Rattus norvegicus. The test can be described thus: Antihypertensive activity in anesthetized SHR rat assessed as increase in heart rate at 3 mg/kg, iv. It counts as functional.
For test [34], the system named is Rattus norvegicus. The test can be described thus: Antihypertensive activity in anesthetized SHR rat assessed as decrease in heart rate at 3 mg/kg, iv after 10 mins. It counts as functional.
The test system of test [35] is Rattus norvegicus. Put plainly: Antihypertensive activity in anesthetized SHR rat assessed as decrease in basal mean arterial blood pressure at 3 mg/kg, iv. It counts as functional, Artery.
In test [36] the test system is Rattus norvegicus. The test can be described thus: Antihypertensive activity in anesthetized SHR rat assessed as decrease in basal mean arterial blood pressure at 3 mg/kg, iv after 10 mins. The test is classed as functional, Artery.

With `COC(=O)N1c2c(OC)cccc2[C@@]23CCN4[C@@H]5C[C@@H](OC)[C@]6(CC[C@]12[C@](O)(C(=O)OC)[C@H]6O5)[C@H]43`, the outcome in the test with Rattus norvegicus [1], with Rattus norvegicus [2], in the test with Rattus norvegicus [4], in the test with Rattus norvegicus [5], in the test on Rattus norvegicus [6] and with Rattus norvegicus [7] was Active. Further, the result in the test with Rattus norvegicus [9], in the test with Rattus norvegicus [10], in the test on Rattus norvegicus [11], in the test on Rattus norvegicus [12], in the test with Rattus norvegicus [13] and in the test with Rattus norvegicus [14] was Active. Besides, the Activity entry in the test on Rattus norvegicus [3] and in the test on Rattus norvegicus [8] was “Dose-dependent effect” throughout.
Consider `COC(=O)N1c2c(OC)cccc2[C@@]23CCN4[C@H]5CC[C@]6(CC[C@]12[C@](O)(C(=O)OC)[C@@H]6O5)[C@H]43`, for which the outcome in the test on Rattus norvegicus [1], with Rattus norvegicus [15], in the test on Rattus norvegicus [2], in the test on Rattus norvegicus [4], with Rattus norvegicus [16] and in the test with Rattus norvegicus [5] was Active. The outcome with Rattus norvegicus [7], with Rattus norvegicus [9], in the test on Rattus norvegicus [10], in the test on Rattus norvegicus [11], in the test on Rattus norvegicus [12] and with Rattus norvegicus [13] was Active. Besides, in the test on Rattus norvegicus [14], the result was Active. Moreover, the Activity entry in the test with Rattus norvegicus [3] and in the test on Rattus norvegicus [8] was “Dose-dependent effect” each time.
Regarding `CN1[C@@H]2CC[C@H]1C[C@@H](OC(=O)C(CO)c1ccccc1)C2` (stereo partly drawn) [ATROPINE], the Activity is recorded as 160.9 mmHg in the test on Rattus norvegicus [17], 368 bpm in the test with Rattus norvegicus [18], 371 bpm in the test on Rattus norvegicus [19] and 155.6 mmHg with Rattus norvegicus [20].
With `COC(=O)N1c2c(OC)cccc2[C@@]23CCN4CCC[C@]5(CC[C@]12[C@](O)(C(=O)OC)[C@@H]5O)[C@H]43` [DIHYDROKOPSINGINE], the result in the test on Rattus norvegicus [15] and with Rattus norvegicus [16] was inactive. Besides, the Activity with Rattus norvegicus [21] is -52.5 bpm; in the test on Rattus norvegicus [22], -49.2 bpm; in the test on Rattus norvegicus [3] it was “Dose-dependent effect”; with Rattus norvegicus [23] it was -44.7 mmHg; with Rattus norvegicus [8], “Dose-dependent effect”; in the test on Rattus norvegicus [24], 18.2 mmHg.
For the compound `C[N+](C)(C)CCCCCC[N+](C)(C)C.[Cl-].[Cl-]` [HEXAMETHONIUM CHLORIDE], the Activity is 296.8 bpm in the test on Rattus norvegicus [25], 313.6 bpm in the test with Rattus norvegicus [26], 92 mmHg in the test on Rattus norvegicus [27] and 104.8 mmHg in the test on Rattus norvegicus [28].
Take `COC(=O)N1c2ccccc2[C@]23CCN4CC=C[C@@]5(CC[C@@]12[C@@](O)(C(=O)OC)[C@H]5O)[C@@H]43` [KOPSAPORINE]: the Activity entry in the test on Rattus norvegicus [3] was “Dose-dependent effect”; in the test on Rattus norvegicus [29], 3.6 min.
Regarding `COC(=O)N1c2c(OC)cccc2[C@@]23CCN4CC=C[C@]5(CC[C@]12[C@](O)(C(=O)OC)[C@@H]5O)[C@H]43` [KOPSINGINE], the result in the test on Rattus norvegicus [15] and with Rattus norvegicus [16] was inactive. The Activity with Rattus norvegicus [30] is -51 mmHg; with Rattus norvegicus [31], -71.5 bpm; with Rattus norvegicus [21] it was 66.7 bpm; with Rattus norvegicus [22], -101 bpm; in the test with Rattus norvegicus [3], “Dose-dependent effect”; in the test on Rattus norvegicus [23], -68.5 mmHg. Further, the Activity with Rattus norvegicus [29] was 3.9 min; with Rattus norvegicus [8], “Dose-dependent effect”; in the test on Rattus norvegicus [24] it was 30.7 mmHg; with Rattus norvegicus [32], “Dose-dependent effect”.
`Cc1ccc(N(CC2=NCCN2)c2cccc(O)c2)cc1` [PHENTOLAMINE]: the Activity worked out at 372.5 bpm in the test with Rattus norvegicus [33], 356.7 bpm in the test with Rattus norvegicus [34], 106.7 mmHg in the test on Rattus norvegicus [35] and 108.4 mmHg in the test on Rattus norvegicus [36].
